In US20160000851A1, “Bioactive Botanical Compositions and Uses Thereof” (AKZO NOBEL CHEMICALS INTERNATIONAL B.V., priority 2013, published 2016):
Converted amounts (≈) assume the structure as drawn.

Assays:
Format in all cases: cell-based
IL-1α [1] = assay: Surfactant induction of IL-1α release in human epidermal keratinocytes; conditions: HEK, 16 hours, SDS at 25 μg/ml
Description: (§1) The protocols for the growth and treatment of human primary epidermal keratinocyte (HEK) cultures are as follows. HEK and all cell culture supplies were obtained from Life Technologies Co. (Carlsbad, Calif.). The cells were maintained in keratinocyte growth medium (KGM), which contains keratinocyte basal medium 154 (M154) and human keratinocyte growth supplements (HKGS). They were grown at 37° C. in an atmosphere of 5% (v/v) CO2 and used between passages from 2 to 4. For the treatment, keratinocytes were trypsinized by Trypsin 0.025%/EDTA 0.01% in Phosphate Buffered Saline, seeded in 96-well plates, and grown in KGM to about 80% confluence. The cells were then exposed to SDS (Sigma-Aldrich Co., St. Louis, Mo.) at various concentrations for about 16 hours. After incubation, the supernatants were collected, and IL-1α and IL-8 were quantified using Quantikine® ELISA (R&D Systems, Minneapolis, Minn.). Results were presented as the mean±standard deviation. IC50 was calculated using sigmoidal curve fitting with SigmaPlot Version 10.0 (Systat Software). LDH (lactate dehydrogenase) assay (G-Biosciences, St. Louis, Mo.) was performed on all the supernatants to assess cytotoxicity.
(§2) The protocols for the growth of HEK are described under Example 1. Instead of SDS, the keratinocytes were exposed to a range of concentrations of ethoxylated alcohol for about 16 hours.

IL-8 [2] = assay: Surfactant induction of IL-8 release in human epidermal keratinocytes; conditions: HEK, 16 hours, SDS at 6 μg/ml
Description: as §1, §2

[3] = tested on: human epidermal keratinocytes (HEK); assay: Mildness ranking of surfactants by LDH cytotoxicity and IL-1α release in HEK; conditions: based on LDH cytotoxicity and IL-1α induction in HEK
Description: as §1, with “cytotoxicity. […]” for “cytotoxicity.”

IL-1α [4] = assay: Inhibition of SDS-induced IL-1α release in human epidermal keratinocytes (ELISA); conditions: Keratinocyte, HEK, SDS 25 μg/ml, 16 hours, read-out: Estimated IC50 for inhibition of SDS-induced IL-1α release
IL-8 [5] = assay: Inhibition of SDS-induced IL-8 release in human epidermal keratinocytes (ELISA); conditions: HEK, SDS 6 μg/ml, 16 hours
Description: The protocols for the growth and treatment of human primary epidermal keratinocyte (HEK) cultures are as follows. HEK and all cell culture supplies were obtained from Life Technologies Co. (Carlsbad, Calif.). The cells were maintained in keratinocyte growth medium (KGM), which contains keratinocyte basal medium 154 (M154) and human keratinocyte growth supplements (HKGS). They were grown at 37° C. in an atmosphere of 5% (v/v) CO2 and used between passages from 2 to 4. For the treatment, keratinocytes were trypsinized by Trypsin 0.025%/EDTA 0.01% in Phosphate Buffered Saline, seeded in 96-well plates, and grown in KGM to about 80% confluence. The cells were then exposed to SDS (Sigma-Aldrich Co., St. Louis, Mo.) at various concentrations for about 16 hours. After incubation, the supernatants were collected, and IL-1α and IL-8 were quantified using Quantikine® ELISA (R&D Systems, Minneapolis, Minn.). […] IC50 was calculated using sigmoidal curve fitting with SigmaPlot Version 10.0 (Systat Software). […]
Treatment was conducted by incubation of HEK with SDS (25 μg/ml for induction of IL-1α or 6 μg/ml for induction of IL-8 as determined in Example 1) for 16 hours in presence of a range of concentrations of Recentia® CS, or conventional green tea preparation, or conventional black tea preparation.

IL-1α [6] = assay: Inhibition of ethoxylated alcohol-induced IL-1α release in human epidermal keratinocytes (ELISA); conditions: HEK, ethoxylated alcohol 1000 μg/ml, 16 hours
Description: Treatment was conducted by incubation of HEK with ethoxylated alcohol (1000 μg/ml for induction of IL-1α as determined in Example 3) for 16 hours in presence of a range of concentrations of Recentia® CS, or Aspirin.
Treatment was conducted by incubation of HEK with ethoxylated alcohol (500 μg/ml for induction of IL-1α, as determined in Example 3) for 16 hours in presence of a range of concentrations of Recentia® CS, or conventional green tea preparation or conventional black tea preparation.

IL-8 [7] = assay: Inhibition of basal level non-induced IL-8 release in human epidermal keratinocytes; conditions: HEK, 16 hours
Description: as §1
The protocols for the growth of HEK are described under Example 1.

SMILES: CCCCCCCCCCCCOS(=O)(=O)[O-].[Na+] [SDS, Sodium Dodecyl Sulfate]
- Induction of IL-1α release by surfactant (IL-1α [1]): significant (p<0.001) induction of IL-1α
- Induction of IL-8 release by surfactant (IL-8 [2]): significant (p<0.001) induction of IL-8
- Mildness/harshness rank among six tested surfactants [3]: close to the harshest surfactant

SMILES: CC(=O)Oc1ccccc1C(=O)O [Aspirin]
- IC50 (IL-1α [4]): ~230 µg/mL (≈ 1280 µM)
- Inhibition of SDS-induced IL-8 release (in words) (IL-8 [5]): did not inhibit SDS-induced release of inflammatory chemokine IL-8
- Inhibition of ethoxylated alcohol-induced IL-1α release (in words) (IL-1α [6]): failed to inhibit IL-1α release induced by the ethoxylated alcohol

SMILES: C[S+]([O-])c1ccc(-c2nc(-c3ccncc3)c(-c3ccc(F)cc3)[nH]2)cc1 (stereo not shown) [SB203580]
- Inhibition of basal level non-induced IL-8 release (in words) (IL-8 [7]): inhibited SDS-induced IL-8 only
